Experimental data reported in US7488740B2, “Substituted quinolin-4-ylamine analogues” (Neurogen Corporation, priority 2003, dated 2009).

Target: T1, human capsaicin receptor (Homo sapiens, UniProt Q8NER1)
T1 construct: A cDNA encoding full length human capsaicin receptor recited in U.S. Pat. No. 6,482,611 was subcloned in the plasmid pBK-CMV; expressed in transfected cells
Test: Calcium mobilization assay (Example 6)
Type: cell-based
Conditions: concentration required to provide a 50% decrease in the fluorescence response of cells exposed to one IC50 of capsaicin
Procedure, shortened: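 HEK293 clonal lines stably expressing full-length human capsaicin receptor, Fluo-3 AM loaded in KRH buffer pH 7.4. Compounds (final 1-5 μM) preincubated 0.5-6 h at room temperature in the dark, then capsaicin added at its predetermined IC50 concentration. FLIPR calcium signal at 30-60 s; IC50 = antagonist concentration giving 50% decrease.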

T1 sequence (Q8NER1 whole entry): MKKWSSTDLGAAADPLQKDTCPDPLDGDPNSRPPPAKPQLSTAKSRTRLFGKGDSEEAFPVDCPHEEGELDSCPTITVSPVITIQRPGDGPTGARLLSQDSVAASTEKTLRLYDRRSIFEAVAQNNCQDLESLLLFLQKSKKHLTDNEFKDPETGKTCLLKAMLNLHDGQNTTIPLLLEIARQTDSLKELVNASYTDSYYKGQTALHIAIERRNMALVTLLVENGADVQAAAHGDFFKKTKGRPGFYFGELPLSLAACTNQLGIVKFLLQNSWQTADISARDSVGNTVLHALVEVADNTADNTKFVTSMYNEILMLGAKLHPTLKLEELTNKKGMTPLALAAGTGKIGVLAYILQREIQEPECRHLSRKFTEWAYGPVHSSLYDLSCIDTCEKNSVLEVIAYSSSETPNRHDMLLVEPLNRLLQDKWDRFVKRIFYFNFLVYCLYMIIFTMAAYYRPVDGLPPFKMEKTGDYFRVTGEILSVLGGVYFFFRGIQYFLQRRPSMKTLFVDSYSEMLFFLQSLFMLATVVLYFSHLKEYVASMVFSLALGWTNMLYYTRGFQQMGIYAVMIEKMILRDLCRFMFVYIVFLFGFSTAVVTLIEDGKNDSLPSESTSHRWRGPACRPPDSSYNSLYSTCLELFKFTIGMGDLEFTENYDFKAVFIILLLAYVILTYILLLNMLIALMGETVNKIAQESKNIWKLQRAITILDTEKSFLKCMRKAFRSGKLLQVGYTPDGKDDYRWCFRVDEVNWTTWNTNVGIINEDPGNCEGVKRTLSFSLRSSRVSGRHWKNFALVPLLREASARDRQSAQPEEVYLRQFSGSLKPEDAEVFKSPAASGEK

IC50	SMILES
≤ 1000 nM	CN1CCCC(c2cc(Nc3ccc(C(F)(F)F)cn3)c3ccc(-c4ncccc4C(F)(F)F)nc3n2)C1 (stereo not drawn) [Compound 124, 2-(1-methylpiperidin-3-yl)-7-[3-(trifluoromethyl)pyridin-2-yl]-N-[5-(trifluoromethyl)pyridin-2-yl]-1,8-naphthyridin-4-amine]
≤ 1000 nM	FC(F)(F)c1ccc(Nc2ccnc3cc(-c4ncccc4C(F)(F)F)cnc23)nc1 [Compound 108, 7-[3-(trifluoromethyl)pyridin-2-yl]-N-[5-(trifluoromethyl)pyridin-2-yl]-1,5-naphthyridin-4-amine]
≤ 1000 nM	FC(F)(F)c1ccc(Nc2cc(N3CCOCC3)nc3nc(-c4ncccc4C(F)(F)F)ccc23)nc1 [Compound 129, 2-morpholin-4-yl-7-[3-(trifluoromethyl)pyridin-2-yl]-N-[5-(trifluoromethyl)pyridin-2-yl]-1,8-naphthyridin-4-amine]
≤ 1000 nM	CCCCNc1cc(Nc2ccc(C(C)(C)C)cc2)c2ccc(-c3ncccc3C(F)(F)F)cc2n1 [Compound 27, N~2~-butyl-N~4~-(4-tert-butylphenyl)-7-[3-(trifluoromethyl)pyridin-2-yl]quinoline-2,4-diamine]
≤ 1000 nM	CCCc1cc(Nc2ccc(C(F)(F)F)cn2)c2ccc(-c3ncccc3C(F)(F)F)nc2n1 [Compound 114, 2-propyl-7-[3-(trifluoromethyl)pyridin-2-yl]-N-[5-(trifluoromethyl)pyridin-2-yl]-1,8-naphthyridin-4-amine]
≤ 1000 nM	Cc1ccc(Nc2cc(C3CCC3)nc3nc(-c4ncccc4C(F)(F)F)ccc23)nc1 [Compound 99, 2-cyclobutyl-N-(5-methylpyridin-2-yl)-7-[3-(trifluoromethyl)pyridin-2-yl]-1,8-naphthyridin-4-amine]
≤ 1000 nM	FC(F)(F)c1ccc(Nc2cc(CN3CCOCC3)nc3nc(-c4ncccc4C(F)(F)F)ccc23)nc1 [Compound 91, 2-(morpholin-4-ylmethyl)-7-[3-(trifluoromethyl)pyridin-2-yl]-N-[5-(trifluoromethyl)pyridin-2-yl]-1,8-naphthyridin-4-amine]
≤ 1000 nM	CCOc1cc(Nc2ccc(C(C)(C)C)cc2)c2ccc(-c3ncccc3C(F)(F)F)cc2n1 [Compound 30, N-(4-tert-butylphenyl)-2-ethoxy-7-[3-(trifluoromethyl)pyridin-2-yl]quinolin-4-amine]
≤ 1000 nM	CC(C)c1cc(Nc2ccc(C(F)(F)F)cn2)c2ccc(-c3ncccc3C(F)(F)F)nc2n1 [Compound 102, 2-isopropyl-7-[3-(trifluoromethyl)pyridin-2-yl]-N-[5-(trifluoromethyl)pyridin-2-yl]-1,8-naphthyridin-4-amine]
≤ 1000 nM	CC(C)OCc1cc(Nc2ccc(C(F)(F)F)cc2)c2ccc(-c3ncccc3C(F)(F)F)nc2n1 [Compound 41, 2-(isopropoxymethyl)-N-[4-(trifluoromethyl)phenyl]-7-[3-(trifluoromethyl)pyridin-2-yl]-1,8-naphthyridin-4-amine]
≤ 1000 nM	CCc1cc(Nc2ccc(C(C)(C)O)cn2)c2ccc(-c3ncccc3C(F)(F)F)nc2n1 [Compound 112, 2-[6-({2-ethyl-7-[3-(trifluoromethyl)pyridin-2-yl]-1,8-naphthyridin-4-yl}amino)pyridin-3-yl]propan-2-ol]
≤ 1000 nM	CN(CC(=O)O)Cc1cc(Nc2ccc(C(F)(F)F)cc2)c2ccc(-c3ncccc3C(F)(F)F)nc2n1 [Compound 76, N-methyl-N-({4-{[4-(trifluoromethyl)phenyl]amino}-7-[3-(trifluoromethyl)pyridin-2-yl]-1,8-naphthyridin-2-yl}methyl)glycine]
≤ 1000 nM	NC(=O)c1cc(Nc2ccc(C(F)(F)F)cn2)c2ccc(-c3ncccc3C(F)(F)F)nc2n1 [Compound 126, 7-[3-(trifluoromethyl)pyridin-2-yl]-4-{[5-(trifluoromethyl)pyridin-2-yl]amino}-1,8-naphthyridine-2-carboxamide]
≤ 1000 nM	O=C1OCc2nc3nc(-c4ncccc4C(F)(F)F)ccc3c(Nc3ccc(C(F)(F)F)cc3)c21 [Compound 12, 5-{[4-(trifluoromethyl)phenyl]amino}-2-[3-(trifluoromethyl)pyridin-2-yl]furo[3,4-b]-1,8-naphthyridin-6(8H)-one]
≤ 1000 nM	CCOc1cc(Nc2ccc(C(F)(F)F)cc2)c2ccc(-c3ncccc3C(F)(F)F)nc2n1 [Compound 36, 2-ethoxy-N-[4-(trifluoromethyl)phenyl]-7-[3-(trifluoromethyl)pyridin-2-yl]-1,8-naphthyridin-4-amine]
≤ 1000 nM	CC(C)CCNc1cc(Nc2ccc(C(C)(C)C)cc2)c2ccc(-c3ncccc3C(F)(F)F)cc2n1 [Compound 29, N~4~-(4-tert-butylphenyl)-N~2~-isopentyl-7-[3-(trifluoromethyl)pyridin-2-yl]quinoline-2,4-diamine]
≤ 1000 nM	CC(C)(C)c1ccc(Nc2cc(Cl)nc3cc(-c4ncccc4C(F)(F)F)ccc23)cc1 [Compound 22, N-(4-tert-butylphenyl)-2-chloro-7-[3-(trifluoromethyl)pyridin-2-yl]quinolin-4-amine]
≤ 1000 nM	CCOCc1cc(Nc2ccc(C(F)(F)F)cc2)c2ccc(-c3ncccc3C(F)(F)F)nc2n1 [Compound 40, 2-(ethoxymethyl)-N-[4-(trifluoromethyl)phenyl]-7-[3-(trifluoromethyl)pyridin-2-yl]-1,8-naphthyridin-4-amine]
≤ 1000 nM	CC(O)COCc1cc(Nc2ccc(C(F)(F)F)cc2)c2ccc(-c3ncccc3C(F)(F)F)nc2n1 (stereo not drawn) [Compound 66, 1-({4-{[4-(trifluoromethyl)phenyl]amino}-7-[3-(trifluoromethyl)pyridin-2-yl]-1,8-naphthyridin-2-yl}methoxy)propan-2-ol]
≤ 1000 nM	N#Cc1cc(Nc2ccc(C(F)(F)F)cn2)c2ccc(-c3ncccc3C(F)(F)F)nc2n1 [Compound 125, 7-[3-(trifluoromethyl)pyridin-2-yl]-4-{[5-(trifluoromethyl)pyridin-2-yl]amino}-1,8-naphthyridine-2-carbonitrile]
≤ 1000 nM	COC(C)c1cc(Nc2ccc(C(C)(C)O)cn2)c2ccc(-c3ncccc3C(F)(F)F)nc2n1 (stereo not drawn) [Compound 121, 2-[6-({2-(1-methoxyethyl)-7-[3-(trifluoromethyl)pyridin-2-yl]-1,8-naphthyridin-4-yl}amino)pyridin-3-yl]propan-2-ol]
≤ 1000 nM	CC(C)CN(CC(=O)O)Cc1cc(Nc2ccc(C(F)(F)F)cc2)c2ccc(-c3ncccc3C(F)(F)F)nc2n1 [Compound 81, N-isobutyl-N-({4-{[4-(trifluoromethyl)phenyl]amino}-7-[3-(trifluoromethyl)pyridin-2-yl]-1,8-naphthyridin-2-yl}methyl)glycine]
≤ 1000 nM	CCc1ccc(Nc2ccnc3nc(-c4ncccc4C(F)(F)F)ccc23)nc1 [Compound 143, N-(5-ethylpyridin-2-yl)-7-[3-(trifluoromethyl)pyridin-2-yl]-1,8-naphthyridin-4-amine]
≤ 1000 nM	FC(F)(F)c1ccc(Nc2ccnc3nc(-c4ncccc4C(F)(F)F)ccc23)cn1 [Compound 142, 7-[3-(trifluoromethyl)pyridin-2-yl]-N-[6-(trifluoromethyl)pyridin-3-yl]-1,8-naphthyridin-4-amine]
≤ 1000 nM	CN(C)CCOCc1cc(Nc2ccc(C(F)(F)F)cc2)c2ccc(-c3ncccc3C(F)(F)F)nc2n1 [Compound 25, 2-{[2-(dimethylamino)ethoxy]methyl}-N-[4-(trifluoromethyl)phenyl]-7-[3-(trifluoromethyl)pyridin-2-yl]-1,8-naphthyridin-4-amine]
≤ 1000 nM	FC(F)(F)c1ccc(Nc2ccnc3nc(-c4ncccc4C(F)(F)F)cnc23)nc1 [Compound 113, 3-[3-(trifluoromethyl)pyridin-2-yl]-N-[5-(trifluoromethyl)pyridin-2-yl]pyrido[2,3-b]pyrazin-8-amine]
≤ 1000 nM	FC(F)(F)c1cnc(Nc2ccnc3nc(-c4ncccc4C(F)(F)F)ccc23)cn1 [Compound 131, N-[5-(trifluoromethyl)pyrazin-2-yl]-7-[3-(trifluoromethyl)pyridin-2-yl]-1,8-naphthyridin-4-amine]
≤ 1000 nM	CCOc1cc(Nc2ccc(C(C)C)cc2)c2ccc(-c3ncccc3C(F)(F)F)nc2n1 [Compound 38, 2-ethoxy-N-(4-isopropylphenyl)-7-[3-(trifluoromethyl)pyridin-2-yl]-1,8-naphthyridin-4-amine]
≤ 1000 nM	CC(C)(C)c1ccc(Nc2cc(O)nc3cc(-c4ncccc4C(F)(F)F)ccc23)cc1 [Compound 21, 4-[(4-tert-butylphenyl)amino]-7-[3-(trifluoromethyl)pyridin-2-yl]quinolin-2-ol]

SMILES	IC50
CC(C)COCc1cc(Nc2ccc(S(C)(=O)=O)cc2)c2ccc(-c3ncccc3C(F)(F)F)nc2n1 [Compound 65, 2-(isobutoxymethyl)-N-[4-(methylsulfonyl)phenyl]-7-[3-(trifluoromethyl)pyridin-2-yl]-1,8-naphthyridin-4-amine]	≤ 1000 nM
CC(C)COCc1cc(Nc2ccc(C(C)(C)O)cc2)c2ccc(-c3ncccc3C(F)(F)F)nc2n1 [Compound 57, 2-[4-({2-(isobutoxymethyl)-7-[3-(trifluoromethyl)pyridin-2-yl]-1,8-naphthyridin-4-yl}amino)phenyl]propan-2-ol]	≤ 1000 nM
CCCS(=O)(=O)c1ccc(Nc2cc(COCC(C)C)nc3nc(-c4ncccc4C(F)(F)F)ccc23)cc1 [Compound 73, 2-(isobutoxymethyl)-N-[4-(propylsulfonyl)phenyl]-7-[3-(trifluoromethyl)pyridin-2-yl]-1,8-naphthyridin-4-amine]	≤ 1000 nM
CC(C)COCc1cc(Nc2ccc(C#N)cn2)c2ccc(-c3ncccc3C(F)(F)F)nc2n1 [Compound 87, 6-({2-(isobutoxymethyl)-7-[3-(trifluoromethyl)pyridin-2-yl]-1,8-naphthyridin-4-yl}amino)nicotinonitrile]	≤ 1000 nM
